The text below walks through data of patent US20220194938A1, “NOVEL COMPOUNDS AND PHARMACEUTICAL COMPOSITIONS THEREOF FOR THE TREATMENT OF INFLAMMATORY DISORDERS” (GALAPAGOS NV, priority 2019, published 2022).

Where two headings read alike, the source gives them in different places.

One data set deals with T1, hERG channel (Homo sapiens, UniProt Q12809).
T1 construct: host or cells: HEK293
In words: hERG channel test - manual patch clamp assay. The data set is classed as cell-based. As to conditions: HEK293 cells stably transfected with hERG, tail current. The protocol:
4.7 hERG Channel Test—Manual Patch Clamp Assay
The aim of this assay is to determine the in-vitro effects of a test compound on hERG current ([…]) expressed in Human Embryonic Kidney (HEK) cells (evaluation of the blocking profile of test substance on the IKr-like potassium current mediated by hERG channel stably transfected in a human cell line), which is linked to cardiac safety.
The test substance is dissolved in pure dimethylsulfoxide (DMSO) by cold stirring to give a stock solution concentrated 333-fold as compared with the highest concentration to be tested. This stock solution is used to prepare the other stock solutions in DMSO. Each stock solution is used to prepare the solutions containing the final concentrations tested by dilution in extracellular solution (0.1, 1, 10 and 100 μM). Final concentration of DMSO should not not exceed 0.3%.
All formulations are prepared in glass containers.
If a slight opalescence persists at the highest concentration, a 50 μM (instead of 100 μM) concentration is tested.
DMSO diluted in extracellular solution (at the different concentrations used in the final test substance solutions) is used as vehicle.
The extracellular solution is constituted as follows (mM): K-gluconate: 4 mM/Na-gluconate: 145 mM/Mg-gluconate: 2 mM/Ca-gluconate: 3.5 mM/HEPES: 5 mM/glucose: 5 mM/mannitol: 20 mM. The pH is adjusted with NaOH to 7.40±0.05.
Human embryonic kidney (HEK293) cells are stably transfected with the hERG clone (Creacell) and are maintained at 37° C. in a 5% CO2/95% air incubator. Cells used for the study are transferred to an experimental chamber of approximately 2 mL which is maintained at a temperature of 35±0.5° C. by a thermoelectric device (Harvard Apparatus: Type TC-344B) and mounted on the platform of an inverted microscope (Olympus: Type IX-51 or Leica DMI3000 B). Cells are continuously superfused with Tyrode's solution constituted as follows (mM): NaCl: 145/KCl: 4/HEPES: 5/glucose: 5/CaCl2:1/MgCl2: 1.
Ionic currents from hERG-transfected cells are measured using the whole cell configuration of the patch clamp technique. Glass pipettes are pulled from borosilicate glass by a vertical puller (Sutter Instruments: Type P30). Pipette tip resistance is approximately 1.5 to 3.5 MΩ when filled with internal solution constituted as follows (mM): K-gluconate: 145/Mg-gluconate: 1/EGTA: 2/HEPES:5/K2ATP: 2.
The pipettes are connected to the input stage of a patch-clamp amplifier (Axon Instruments: Multiclamp 700B-1). Stimulation, data recording and analysis are performed using specialized Axon Instruments software (pClamp 9.2.0. or pClamp 10.3.0.2).
After rupture of the cell membrane (entering whole-cell mode), cells are stimulated every 10 seconds using the following protocol: 500 ms pulse to +10 mV from a holding potential of −80 mV followed by a 500 ms pulse to −40 mV during which tail current is measured.
Once the current under control conditions is stable, recordings are taken before (control) and after addition of the test substance. The effect of the test substance on tail current is monitored continuously until steady-state is reached. The peak tail current amplitude is averaged for 3 stimuli.
The following parameters are measured: • Cell capacitance (pF). • Peak tail current amplitude (pA).
Peak tail current measurements are normalized using the cell capacitance as an index of cell surface.
The cells will be considered as valid if cell capacitance <80 pF, access resistance <20 MΩ and holding current >−200 pA.
Results are expressed as absolute values and as percentage change from control (percentage of tail current inhibition).
The test substance is studied at 4 ascending concentrations on 3 hERG-transfected cells.
The concentration of test substance inducing 50% of inhibition (IC50) of tail current is determined, if possible, from each individual concentration-response curve. The equation is of the following form: […]

Another data set has as its system THP-1-Lucia NFκB cells. In words: NFκB-reporter assay in THP1-Lucia NFκB cells (LPS, IL-1β, TNFα trigger). The data set is classed as cell-based. The following applies: 24 h. From the text: This assay was used to evaluate the IRAK4 selectivity and potency of the compounds of the invention upon IRAK4 dependent (LPS and IL-1β) and independent triggering (TNFα), in a THP1-Lucia NFκB reporter assay.
THP-1-Lucia NFκB cells (Invivogen—5, rue Jean Rodier 31400 Toulouse France—cat #thp1-nfkb) were cultivated as recommended by the supplier using split cycles each cycle comprising a succession of thawing/expansion/seeding. The data reported were generated using cells having between 3 to 9 cycles. On the day of the experiment THP-1-Lucia NFκB cells were counted and seeded at a density of 1,000,000 cells/mL in culture medium (RPMI 1640 (Gibco, Cat #52400-025)+10% FBS (Sigma, Cat #F7524-500ML)+1% P/S (Gibco, Cat #15140-122)) by pipetting 54 μL/well in a 384 well plate. Thereafter, 6 μL of a 10× trigger solution was added to all wells, at final concentrations of 2.5, 10 and 3 ng/mL for respectively LPS, TNFα and IL-1β, except for ‘no trigger wells’ where 6 μL culture medium only was added.
After trigger addition, compounds were added with a digital compound dispenser, in an 8-points concentration range, using 3-fold dilution steps and normalizing the final DMSO concentration to 0.2% DMSO in all wells.
After 24 h incubation at 37° C., 5% CO2, 40 μL of supernatant was collected per well and transferred to a new 384 well plate that was then stored at −20° C. until further use.
For the readout, supernatant samples were thawed on ice and 5 μL sample was transferred from each well to a new 384-well plate. 20 μL of Quanti-Luc solution (Quanti-Luc powder (Invivogen, Cat #rep-glc1) dissolved in 25 mL sterile water as indicated by the manufacturer) was added to each well after which luminescence was immediately measured on an Envision instrument.
To measure the inhibition of LPS/TNFα/IL-1β-induced NFκB-reporter activity, percentage inhibition (PIN) values were calculated for all concentrations tested, compared to controls. […]
Background: Reporter assays use an easily measured gene product as a stand-in for the process of interest.

T1 sequence (Q12809 whole entry): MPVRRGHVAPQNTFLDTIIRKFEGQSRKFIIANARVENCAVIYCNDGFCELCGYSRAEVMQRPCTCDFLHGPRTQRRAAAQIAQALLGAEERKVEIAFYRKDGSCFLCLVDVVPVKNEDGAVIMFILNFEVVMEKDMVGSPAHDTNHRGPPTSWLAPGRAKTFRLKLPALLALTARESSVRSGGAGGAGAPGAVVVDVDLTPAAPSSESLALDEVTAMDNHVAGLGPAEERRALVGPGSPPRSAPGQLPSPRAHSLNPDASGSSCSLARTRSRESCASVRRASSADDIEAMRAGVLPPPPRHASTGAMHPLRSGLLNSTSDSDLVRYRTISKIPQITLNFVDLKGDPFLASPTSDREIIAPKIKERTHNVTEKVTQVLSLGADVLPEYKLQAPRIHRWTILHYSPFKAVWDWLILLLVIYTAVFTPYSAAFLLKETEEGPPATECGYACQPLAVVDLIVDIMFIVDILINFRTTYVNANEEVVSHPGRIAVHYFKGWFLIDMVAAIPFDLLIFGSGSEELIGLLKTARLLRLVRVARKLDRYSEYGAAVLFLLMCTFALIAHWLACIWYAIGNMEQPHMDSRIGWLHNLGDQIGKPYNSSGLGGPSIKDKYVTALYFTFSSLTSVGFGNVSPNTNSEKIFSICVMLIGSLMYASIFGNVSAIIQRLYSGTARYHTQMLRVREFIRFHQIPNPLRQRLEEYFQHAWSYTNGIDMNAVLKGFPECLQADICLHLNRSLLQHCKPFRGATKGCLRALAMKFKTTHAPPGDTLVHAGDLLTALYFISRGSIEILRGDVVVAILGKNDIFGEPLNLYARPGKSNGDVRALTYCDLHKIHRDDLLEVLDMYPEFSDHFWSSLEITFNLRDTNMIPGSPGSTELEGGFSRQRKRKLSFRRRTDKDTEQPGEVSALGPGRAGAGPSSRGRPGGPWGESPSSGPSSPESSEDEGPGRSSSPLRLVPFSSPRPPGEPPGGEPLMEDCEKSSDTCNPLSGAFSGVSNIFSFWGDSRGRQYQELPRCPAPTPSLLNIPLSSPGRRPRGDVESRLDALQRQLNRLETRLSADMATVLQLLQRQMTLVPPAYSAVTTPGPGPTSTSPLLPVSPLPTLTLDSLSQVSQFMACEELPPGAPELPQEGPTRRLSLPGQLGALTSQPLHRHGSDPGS

As a reminder, the IC50 is the concentration that gives 50% inhibition. `CNC(=O)c1cc2nc(CCC(C)(C)O)cn2cc1NC(=O)c1cccc(C(F)(F)F)n1` [Compound 2, 2-(3-hydroxy-3-methyl-butyl)-N-methyl-6-[[6-(trifluoromethyl)pyridine-2-carbonyl]amino]imidazo[1,2-a]pyridine-7-carboxamide]: on hERG channel, the “hERG Manual Patch Clamp Single dose PIN (10 μM)” value is on record as −44.7% and half-maximal inhibition (IC50) was put at 19.2 µM.

Consider `COc1cc2nc(CCC(C)(C)O)cn2cc1NC(=O)c1cccn(C2CC2)c1=O` [Compound 5, 1-cyclopropyl-N-[2-(3-hydroxy-3-methyl-butyl)-7-methoxy-imidazo[1,2-a]pyridin-6-yl]-2-oxo-pyridine-3-carboxamide], for which, at hERG channel, the “hERG Manual Patch Clamp Single dose PIN (10 μM)” value is −25%.

Turning to `COc1cc2nc(CCC(C)(C)O)cn2cc1NC(=O)c1cccn(C(F)F)c1=O` [Compound 12, 1-(difluoromethyl)-N-[2-(3-hydroxy-3-methyl-butyl)-7-methoxy-imidazo[1,2-a]pyridin-6-yl]-2-oxo-pyridine-3-carboxamide], on hERG channel, the “hERG Manual Patch Clamp Single dose PIN (10 μM)” value is recorded as −76.3% and the IC50 is 3.05 µM.

Turning to `CC(C)(O)CCc1cn2cc(NC(=O)c3cccc(C(F)(F)F)n3)c(C(N)=O)cc2n1` [Compound 31, 2-(3-hydroxy-3-methyl-butyl)-6-[[6-(trifluoromethyl)pyridine-2-carbonyl]amino]imidazo[1,2-a]pyridine-7-carboxamide], on hERG channel, the “hERG Manual Patch Clamp Single dose PIN (10 μM)” value is recorded as −46.7% and the IC50 is 16.3 µM.

For `CCOc1c(NC(=O)c2cccn(C3CC3)c2=O)cn2cc(CCC(C)(C)O)nc2c1F` [Compound 37, 1-cyclopropyl-N-[7-ethoxy-8-fluoro-2-(3-hydroxy-3-methyl-butyl)imidazo[1,2-a]pyridin-6-yl]-2-oxo-pyridine-3-carboxamide], on hERG channel, the “hERG Manual Patch Clamp Single dose PIN (10 μM)” value is listed as −56.3% and the midpoint of inhibition, the IC50, lay at 6.99 µM.

As to `CCOc1c(NC(=O)c2cccn(C)c2=O)cn2cc(CCC(C)(C)O)nc2c1F` [Compound 38, N-[7-ethoxy-8-fluoro-2-(3-hydroxy-3-methyl-butyl)imidazo[1,2-a]pyridin-6-yl]-1-methyl-2-oxo-pyridine-3-carboxamide], the “hERG Manual Patch Clamp Single dose PIN (10 μM)” value at hERG channel is recorded as −30.0%.

For `CCOc1c(NC(=O)c2cccn(C3CC3)c2=O)cn2cc(CCS(C)(=O)=O)nc2c1F` [Compound 39, 1-cyclopropyl-N-[7-ethoxy-8-fluoro-2-(2-methylsulfonylethyl)imidazo[1,2-a]pyridin-6-yl]-2-oxo-pyridine-3-carboxamide], the EC50 with THP-1-Lucia NFκB cells (IL-1β 3 ng/mL, read-out: IL-1β driven NFκB-reporter activity, average pEC50 (converted)) was 0.0631 µM; in the data set with THP-1-Lucia NFκB cells (LPS 2.5 ng/mL, read-out: LPS driven NFκB-reporter activity, average pEC50 (converted)), 0.316 µM. The “TNFα mediated NFκB-reporter activity” value with THP-1-Lucia NFκB cells (TNFα 10 ng/mL) is listed as “no activity was observed”. The “hERG Manual Patch Clamp Single dose PIN (10 μM)” value at hERG channel is given as −39.7%. For the same molecule, the IC50 against hERG channel was above 10 µM.

`COc1c(NC(=O)c2cccn(C3CC3)c2=O)cn2cc(CCC(C)(C)O)nc2c1F` [Compound 42, 1-cyclopropyl-N-[8-fluoro-2-(3-hydroxy-3-methyl-butyl)-7-methoxy-imidazo[1,2-a]pyridin-6-yl]-2-oxo-pyridine-3-carboxamide]: on hERG channel, the “hERG Manual Patch Clamp Single dose PIN (10 μM)” value was −12% and the IC50 is above 92.3 µM.

In the case of `CC(C)(O)CCc1cn2cc(NC(=O)c3cccc(C(F)(F)F)n3)c(C(=O)NCC(F)F)cc2n1` [Compound 48, N-(2,2-difluoroethyl)-2-(3-hydroxy-3-methylbutyl)-6-(6-(trifluoromethyl)picolinamido)imidazo[1,2-a]pyridine-7-carboxamide], the “hERG Manual Patch Clamp Single dose PIN (10 μM)” value at hERG channel is −20.5%.

For `CCNC(=O)c1cc2nc(CCC(C)(C)O)cn2cc1NC(=O)c1cccc(C(F)(F)F)n1` [Compound 49, N-ethyl-2-(3-hydroxy-3-methylbutyl)-6-(6-(trifluoromethyl)picolinamido)imidazo[1,2-a]pyridine-7-carboxamide], at hERG channel, the “hERG Manual Patch Clamp Single dose PIN (10 μM)” value was −17%.
